Laboratory results from PMC7070320, “Unsymmetrically Substituted Dibenzo[b,f][1,5]-diazocine-6,12(5H,11H)dione—A Convenient Scaffold for Bioactive Molecule Design” (Molecules, 2020).
Where two headings read alike, the source gives them in different places. Values belong to the compound of their own block, whether it stands above or below them.

How the values were obtained:
[1] = tested on: two normal (HEK293, EUFA30) and two cancerous (HeLa, U87) cell lines; assay: Cytotoxicity assay (Alamar Blue), statements over all four cell lines; assay type: cell-based, human; conditions: concentrations tested: 1–200 µM
Method: (§1) Following cell lines: HeLa, U87, HEK293, EUFA30 were cultured in DMEM medium (Life Technology, Carlsbad, CA, USA) with 10% fetal bovine serum (Thermo Fisher Scientific, Waltham, MA, USA) and 0.1% antibiotics (penicillin, streptomycin, Life Technology, Carlsbad, CA, USA). Cells were grown in atmosphere of 5 and 95% CO2 and air, respectively, at 37 °C.
(§2) Exponentially growing cells at the density of 2 × 10^3 cells/well were seeded onto a 96-well plate, cultured for 18 h, and treated with newly synthesized compounds at concentrations 1–200 µM, or with DMSO as a control, for 24 or 48 h. Alamar Blue (Thermo Fisher Scientific, Waltham, MA, USA) was added accordingly to manufacturer protocol. After 4 h, light emission at 590 nm was measured with excitation at 560 nm using a scanning multiwell spectrophotometer (DTX 880, Beckman Coulter, Brea, CA, USA). The experiments were repeated at least three times with three replicates for each inhibitor concentration. After background subtraction, inhibition rates, IC50, were calculated as the component concentration inhibiting cell growth by 50%. All the calculations were performed using Origin 9.0 software.

HEK293 [2] = assay: Flow cytometry apoptosis detection (Annexin V-FITC / propidium iodide), HEK293; assay type: cell-based, human; conditions: HEK293, 200 µM; for cells in necrosis: control cells 20%; for cells in early apoptosis: control cells 1.3%
Method: as §1
(§3) The apoptosis detection kit (Annexin V-FITC BD Biosciences, Franklin Lakes, NJ, USA) was used to detect apoptosis by flow cytometry. Cells were seeded in 6-well plates at concentration of 5 × 10^5 cells/well, cultured for 18 h, and tested compound was applied for indicated time. Afterwards, cells were washed with PBS, resuspended in binding buffer at concentration of 2 × 10^6 cells/mL. The anti-Annexin V FITC-conjugated antibody and propidium iodide were added to 100 µl aliquots. Then, mixtures were incubated for 15 min at room temperature, supplemented with binding buffer to 500 µl and processed by BD FACSCalibur (BD Biosciences, Franklin Lakes, NJ, USA). Data were analyzed in Flowing Software version 2.5.1 (Flowing Software, http://www.uskonaskel.fi/flowingsoftware).

HeLa [3] = assay: Cytotoxicity assay (Alamar Blue), HeLa cells; assay type: cell-based; conditions: Homo sapiens, read-out: IC50 based on the survival of cells
Method: as §1, §2

HEK293 [4] = assay: Cytotoxicity assay (Alamar Blue), HEK293 cells; assay type: cell-based, human; conditions: read-out: IC50 based on the survival of cells
Method: as §1, §2

U87 [5] = assay: Flow cytometry apoptosis detection (Annexin V-FITC / propidium iodide), U87; assay type: cell-based, human; conditions: U87, 200 µM; for cells in late apoptosis: control 1.6%; for cells in necrotic phase: 48 h, control 17%; for cells in necrosis: control 8.6%
Method: as §1, §3

EUFA30 = assay: Cytotoxicity assay (Alamar Blue), EUFA30 cells; assay type: cell-based; conditions: Homo sapiens, read-out: IC50 based on the survival of cells
Method: as §1, §2

U87 [6] = assay: Cytotoxicity assay (Alamar Blue), U87 cells; assay type: cell-based, human; conditions: read-out: IC50 based on the survival of cells
Method: as §1, §2

HeLa [7] = assay: Flow cytometry apoptosis detection (Annexin V-FITC / propidium iodide), HeLa; assay type: cell-based, human; conditions: 200 µM
Method: as §1, §3

[8] = Homo sapiens, HEK293, 24 h, HEK293, 24 h of treatment
[9] = Homo sapiens, U-87 MG, 24 h, U87, 24 h of treatment
[10] = Homo sapiens, U-87 MG, 48 h, U87, 48 h of treatment
[11] = Homo sapiens, HEK293, 48 h, HEK293, 48 h of treatment

melting point: 195 to 196 °C
Compound: COc1cc2c(cc1OC)C(=O)Nc1ccc(Br)cc1C(=O)N2 [Compound 10c, 8-Bromo-2,3-dimethoxydibenzo[b,f][1,5]diazocine-6,12(5H,11H)-dione]
cytotoxic effect (in words) [1]: no cytotoxic effect in the concentration range tested

melting point: 225 to 226 °C
Compound: CN1C(=O)c2cc([N+](=O)[O-])ccc2NC(=O)c2ccccc21 [Compound 10f, 11-Methyl-2-nitrodibenzo[b,f][1,5]diazocine-6,12(5H,11H)-dione]
cytotoxic effect (in words) [1]: showed a cytotoxic effect while maintaining the selectivity of action
cells in late apoptosis (HEK293 [2]; 24 h, control cells 0.4%): 0.5%
cells in necrosis (HEK293 [2]; 24 h): 39%
cells in late apoptosis (HEK293 [2]; 48 h, control cells 0.5%): 3%
cells in early apoptosis (HEK293 [2]; 48 h): 6.6%
IC50 (HeLa [3]; 24 h of treatment): 206 ± 12.8 µM

melting point: 270 to 271 °C
Compound: CN1C(=O)c2cc3ccccc3cc2NC(=O)c2cc(Cl)ccc21 [Compound 10h, 2-Chloro-5-methylbenzo[b]naphtho[2,3-f][1,5]diazocine-6,14(5H,13H)-dione]
IC50 (HEK293 [4]; [8]): > 200 µM
cytotoxic effect (in words) [1]: showed a cytotoxic effect while maintaining the selectivity of action
cells in early apoptosis (U87 [5]; 24 h, control 1.2%): 4.1%
cells in late apoptosis (U87 [5]; 24 h): 6.9%
cells in necrotic phase (U87 [5]): 36.2%
cells in late apoptosis (HEK293 [2]; 24 h, control cells 0.4%): 3%
cells in necrosis (HEK293 [2]; 24 h): 32%
cells in late apoptosis (HEK293 [2]; 48 h, control cells 0.5%): 3.2%
cells in early apoptosis (HEK293 [2]; 48 h): 3.8%
IC50 (EUFA30; Eufa30, 24 h of treatment): 170 ± 21.1 µM
IC50 (EUFA30; Eufa30, 48 h of treatment): 200 ± 13.9 µM
IC50 (HeLa [3]; 24 h of treatment): 107 ± 10 µM
IC50 (HeLa [3]; 48 h of treatment): 108 ± 8.6 µM
IC50 (U87 [6]; [9]): 149 ± 9 µM
IC50 (U87 [6]; [10]): 182 ± 5.6 µM

melting point: 247 to 248 °C
Compound: CN1C(=O)c2cc(Br)ccc2NC(=O)c2ccccc21 [Compound 10e, 2-Bromo-11-methyldibenzo[b,f][1,5]diazocine-6,12(5H,11H)-dione]
IC50 (HeLa [3]; 24 h of treatment): > 200 µM

melting point: 346 to 347 °C
Compound: O=C1Nc2nccnc2C(=O)Nc2ccc(Cl)cc21 [Compound 10m, 8-Chloropyrazino[3,2-c][1,5]benzodiazocine-6,12(5H,11H)-dione]

melting point: 193 to 194 °C
Compound: CC(=O)N1C(=O)c2ccccc2N(C)C(=O)c2ccccc21 [Compound 10o, 5-acetyl-11-methyldibenzo[b,f][1,5]diazocine-6,12(5H,11H)-dione]

melting point: 222 to 223 °C
Compound: O=C1Nc2ccccc2C(=O)N(Cc2ccc(Br)cc2)c2ccccc21 [Compound 10j, 5-(4-Bromobenzyl)dibenzo[b,f][1,5]diazocine-6,12(5H,11H)-dione]
IC50 (HEK293 [4]; [11]): 192 ± 12.2 µM
cytotoxic effect (in words) [1]: showed a cytotoxic effect while maintaining the selectivity of action
cells in late apoptosis (U87 [5]; 24 h): 5.2%
cells in necrosis (U87 [5]; 24 h): 17.8%
cells in necrotic phase (U87 [5]): 28.1%
cells in late apoptosis (HEK293 [2]; 24 h, control cells 0.4%): 10%
cells in necrosis (HEK293 [2]; 24 h): 22%
cells in late apoptosis (HEK293 [2]; 48 h, control cells 0.5%): 4.4%
cells in early apoptosis (HEK293 [2]; 48 h): 4%
IC50 (HeLa [3]; 24 h of treatment): 138 ± 14.1 µM
IC50 (HeLa [3]; 48 h of treatment): 203 ± 4 µM

melting point: 275 to 276 °C
Compound: O=C1Nc2ccc(Cl)cc2C(=O)Nc2ccccc21 [Compound 10a, 2-Chlorodibenzo[b,f][1,5]diazocine-6,12(5H,11H)-dione]
cytotoxic effect (in words) [1]: no cytotoxic effect in the concentration range tested

melting point: 271 to 272 °C
Compound: COc1cc2c(cc1OC)C(=O)N(C)c1ccccc1C(=O)N2 [Compound 10g, 2,3-Dimethoxy-11-methyldibenzo[b,f][1,5]diazocine-6,12(5H,11H)-dione]

melting point: 186 to 187 °C (dec.)
Compound: COc1cc2c(cc1OC)C(=S)Nc1ccc(Br)cc1C(=S)N2 [Compound 10p, 8-bromo-2,3-dimethoxydibenzo[b,f][1,5]diazocine-6,12(5H,11H)-dithione]
IC50 (HEK293 [4]; HEK293, 24 h of treatment): 202 ± 7.9 µM
IC50 (HEK293 [4]; [8]): > 200 µM
IC50 (HEK293 [4]; [11]): 145 ± 8.5 µM
cytotoxic effect (in words) [1]: showed a cytotoxic effect while maintaining the selectivity of action
cells in necrosis (U87 [5]; 24 h): 14%
cells in necrotic phase (U87 [5]): 46.6%
IC50 (EUFA30; Eufa30, 24 h of treatment): > 200 µM
IC50 (EUFA30; Eufa30, 48 h of treatment): 158 ± 9.6 µM
percentage of necrotic cells (HeLa [7]; 24 h, non-treated control 21.1%): 34.5%
percentage of necrotic cells (HeLa [7]; 48 h, control cells 22.1%): 53.4%
IC50 (HeLa [3]; 24 h of treatment): 115 ± 4.5 µM
IC50 (HeLa [3]; 48 h of treatment): 204 ± 6.5 µM
IC50 (U87 [6]; [9]): 170 µM
IC50 (U87 [6]; U87, 24 h of treatment): 172 ± 10 µM

melting point: 283 to 284 °C
Compound: O=C1Nc2ccc(Br)cc2C(=O)Nc2ccccc21 [Compound 10b, 2-Bromodibenzo[b,f][1,5]diazocine-6,12(5H,11H)-dione]
cytotoxic effect (in words) [1]: showed a cytotoxic effect while maintaining the selectivity of action
IC50 (HeLa [3]; 24 h of treatment): 97.3 ± 13.7 µM

melting point: 258 to 259 °C
Compound: CN1C(=O)c2ccccc2NC(=O)c2ccccc21 [Compound 10d, 5-Methyldibenzo[b,f][1,5]diazocine-6,12(5H,11H)-dione]

melting point: 125 to 126 °C
Compound: CCOC(=O)CN1C(=O)c2ccccc2N(C)C(=O)c2ccccc21 [Compound 10n, ethyl 2-(11-methyl-6,12-dioxo-11,12-dihydrodibenzo[b,f][1,5]diazocin-5(6H)-yl)acetate]

melting point: 255 to 256 °C
Compound: CN1C(=O)c2cc(Br)ccc2N(Cc2cccc3ccccc23)C(=O)c2ccccc21 [Compound 10k, 2-Bromo-11-methyl-5-(naphthalen-1-ylmethyl)dibenzo[b,f][1,5]diazocine-6,12(5H,11H)-dione]
IC50 (HEK293 [4]; [8]): 119 ± 7.1 µM
IC50 (HEK293 [4]; [11]): 138 ± 12 µM
changes in the apoptosis/necrosis phases in relation to control (U87 [5]; 24 and 48 h): did not observe any changes in the apoptosis/necrosis phases in relation to control
changes in the apoptosis/necrosis phases in relation to control (HEK293 [2]; 24 and 48 h): did not observe any changes in the apoptosis/necrosis phases in relation to control
IC50 (EUFA30; Eufa30, 24 h of treatment): 87.6 ± 8.1 µM
IC50 (EUFA30; Eufa30, 48 h of treatment): 74.4 ± 6.7 µM
changes in the apoptosis/necrosis phases in relation to control (HeLa [7]; 24 and 48 h): did not observe any changes in the apoptosis/necrosis phases in relation to control
IC50 (HeLa [3]; 24 h of treatment): 75.3 ± 1.6 µM
IC50 (HeLa [3]; 48 h of treatment): 124 ± 5.4 µM
IC50 (U87 [6]; [9]): 75.4 ± 8.7 µM
IC50 (U87 [6]; [10]): 197 ± 9.4 µM

melting point: 212 to 213 °C
Compound: O=C1Nc2ccccc2C(=O)N(Cc2ccccc2)c2ccccc21 [Compound 10i, 5-Benzyldibenzo[b,f][1,5]diazocine-6,12(5H,11H)-dione]
